Assay results published in US10750743B2, “Pyridazinone herbicides” (E.I. DU PONT DE NEMOURS AND COMPANY, priority 2015, dated 2020).

Experiments:
Type in all cases: in vivo
[1] = system: barnyardgrass (Echinochloa crus-galli); assay: Test A preemergence, directed soil spray, visual injury rating; conditions: 0 is no effect, 100 is complete control
In short: (§1)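 Compounds in a surfactant-containing solvent were applied as a directed soil spray preemergence, or postemergence to plants 2-10 cm tall at the one- to two-leaf stage, in loam-sand blend. After about 10 d in the greenhouse, injury was rated visually against untreated controls on a 0-100 scale (100 = complete control).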

[2] = system: foxtail, giant (giant foxtail, Setaria faberii); assay: as above; conditions: 0 is no effect, 100 is complete control
In short: as §1

kochia (Kochia scoparia) [3] = assay: as above; conditions: 0 is no effect, 100 is complete control
In short: as §1

[4] = system: pigweed (Amaranthus retroflexus); assay: as above; conditions: 0 is no effect, 100 is complete control
In short: as §1

[5] = system: ragweed (common ragweed, Ambrosia elatior); assay: as above; conditions: 0 is no effect, 100 is complete control
In short: as §1

[6] = system: ryegrass, It. (Italian ryegrass, Lolium multiflorum); assay: as above; conditions: 0 is no effect, 100 is complete control
In short: as §1

[7] = system: barnyardgrass (Echinochloa crus-galli); assay: Test B flooded paddy test, visual rating; conditions: Flood, 250 g ai/ha, applied to paddy water, rated after 13 to 15 d
In short: (§2)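 Plants grown to the 2-leaf stage. At treatment, pots were flooded to 3 cm above the soil, compound was applied directly to the paddy water, and that depth was held throughout. After 13 to 15 d in the greenhouse, response was rated visually against controls on a 0 (no effect) to 100 (complete control) scale.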

[8] = system: ducksalad (Heteranthera limosa); assay: Test B flooded paddy test, visual rating; conditions: Flood, 250 g ai/ha, applied to paddy water, rated after 13 to 15 d
In short: as §2

rice (Oryza sativa) = assay: Test B flooded paddy test, visual rating; conditions: Flood, 250 g ai/ha, applied to paddy water, rated after 13 to 15 d
In short: as §2

[9] = system: sedge, umbrella (small-flower umbrella sedge, Cyperus difformis); assay: Test B flooded paddy test, visual rating; conditions: Flood, 250 g ai/ha, applied to paddy water, rated after 13 to 15 d
In short: as §2

[10] = system: barnyardgrass (Echinochloa crus-galli); assay: Test A postemergence application, visual injury rating; conditions: 0 to 100 scale, 0 no effect, 100 complete control
In short: as §1

[11] = system: blackgrass (Alopecurus myosuroides); assay: as above; conditions: 0 to 100 scale, 0 no effect, 100 complete control
In short: as §1

corn (Zea mays) = assay: as above; conditions: for Plant response rating (0 to 100 scale), Corn: 31 g ai/ha, 0 is no effect, 100 is complete control; for Corn plant response rating: 125 g ai/ha, 0 to 100 scale, 0 no effect, 100 complete control
In short: as §1

[12] = system: foxtail, giant (giant foxtail, Setaria faberii); assay: as above; conditions: for Plant response rating (0 to 100 scale), Foxtail, Giant: 31 g ai/ha, 0 is no effect, 100 is complete control; for Foxtail, Giant plant response rating: 125 g ai/ha, 0 to 100 scale, 0 no effect, 100 complete control
In short: as §1

[13] = system: galium (catchweed bedstraw, Galium aparine); assay: as above; conditions: for Plant response rating (0 to 100 scale), Galium: 31 g ai/ha, 0 is no effect, 100 is complete control; for Galium plant response rating: 125 g ai/ha, 0 to 100 scale, 0 no effect, 100 complete control
In short: as §1

kochia (Kochia scoparia) [14] = assay: as above; conditions: for Plant response rating (0 to 100 scale), Kochia: 31 g ai/ha, 0 is no effect, 100 is complete control; for Kochia plant response rating: 125 g ai/ha, 0 to 100 scale, 0 no effect, 100 complete control
In short: as §1

[15] = system: pigweed (Amaranthus retroflexus); assay: as above; conditions: for Plant response rating (0 to 100 scale), Pigweed: 31 g ai/ha, 0 is no effect, 100 is complete control; for Pigweed plant response rating: 125 g ai/ha, 0 to 100 scale, 0 no effect, 100 complete control
In short: as §1

[16] = system: ragweed (common ragweed, Ambrosia elatior); assay: as above; conditions: for Plant response rating (0 to 100 scale), Ragweed: 31 g ai/ha, 0 is no effect, 100 is complete control; for Ragweed plant response rating: 125 g ai/ha, 0 to 100 scale, 0 no effect, 100 complete control
In short: as §1

[17] = system: ryegrass, It. (Italian ryegrass, Lolium multiflorum); assay: as above; conditions: for Plant response rating (0 to 100 scale), Ryegrass, It.: 31 g ai/ha, 0 is no effect, 100 is complete control; for Ryegrass, It. plant response rating: 125 g ai/ha, 0 to 100 scale, 0 no effect, 100 complete control
In short: as §1

[18] = system: wheat (Triticum aestivum); assay: as above; conditions: for Plant response rating (0 to 100 scale), Wheat: 31 g ai/ha, 0 is no effect, 100 is complete control; for Wheat plant response rating: 125 g ai/ha, 0 to 100 scale, 0 no effect, 100 complete control
In short: as §1

CC(=O)Oc1c(Cl)nn(C)c(=O)c1-c1nccc2ccccc12 [Compound 66]
0: Plant response rating (0 to 100 scale), Barnyardgrass ([1]; 31 g ai/ha) | Plant response rating (0 to 100 scale), Barnyardgrass ([1]; 125 g ai/ha) | Plant response rating (0 to 100 scale), Foxtail, Giant ([2]; 31 g ai/ha) | Plant response rating (0 to 100 scale), Foxtail, Giant ([2]; 125 g ai/ha) | Plant response rating (0 to 100 scale), Kochia (kochia (Kochia scoparia) [3]; 31 g ai/ha) | Plant response rating (0 to 100 scale), Kochia (kochia (Kochia scoparia) [3]; 125 g ai/ha) | Plant response rating (0 to 100 scale), Ragweed ([5]; 31 g ai/ha) | Plant response rating (0 to 100 scale), Ragweed ([5]; 125 g ai/ha) | Plant response rating (0 to 100 scale), Ryegrass, It. ([6]; 31 g ai/ha) | Barnyardgrass plant response rating (0 to 100 scale, 0 is no effect, 100 is complete control) [7] | Ducksalad plant response rating (0 to 100 scale, 0 is no effect, 100 is complete control) [8] | Rice plant response rating (0 to 100 scale, 0 is no effect, 100 is complete control) (rice (Oryza sativa)) | Sedge, Umbrella plant response rating (0 to 100 scale, 0 is no effect, 100 is complete control) [9] | Barnyardgrass plant response rating ([10]; 31 g ai/ha) | Blackgrass plant response rating ([11]; 31 g ai/ha) | Blackgrass plant response rating ([11]; 125 g ai/ha) | Plant response rating (0 to 100 scale), Corn (corn (Zea mays)) | Corn plant response rating (corn (Zea mays)) | Plant response rating (0 to 100 scale), Foxtail, Giant [12] | Plant response rating (0 to 100 scale), Galium [13] | Plant response rating (0 to 100 scale), Kochia (kochia (Kochia scoparia) [14]) | Plant response rating (0 to 100 scale), Wheat [18] | Wheat plant response rating [18]
50: Plant response rating (0 to 100 scale), Ryegrass, It. ([6]; 125 g ai/ha) | Galium plant response rating [13] | Pigweed plant response rating [15]
20: Plant response rating (0 to 100 scale), Pigweed ([4]; 125 g ai/ha) | Plant response rating (0 to 100 scale), Ryegrass, It. [17]
10: Plant response rating (0 to 100 scale), Pigweed ([4]; 31 g ai/ha) | Barnyardgrass plant response rating ([10]; 125 g ai/ha) | Foxtail, Giant plant response rating [12] | Plant response rating (0 to 100 scale), Ragweed [16]
40: Kochia plant response rating (kochia (Kochia scoparia) [14]) | Plant response rating (0 to 100 scale), Pigweed [15] | Ryegrass, It. plant response rating [17]
30: Ragweed plant response rating [16]

Cn1nc(Cl)c(O)c(-c2ccc(F)c3ccoc23)c1=O [Compound 70]
50: Plant response rating (0 to 100 scale), Foxtail, Giant ([2]; 125 g ai/ha) | Plant response rating (0 to 100 scale), Galium [13]
70: Plant response rating (0 to 100 scale), Ryegrass, It. ([6]; 31 g ai/ha) | Pigweed plant response rating [15] | Plant response rating (0 to 100 scale), Ryegrass, It. [17]
90: Plant response rating (0 to 100 scale), Barnyardgrass ([1]; 125 g ai/ha) | Barnyardgrass plant response rating ([10]; 125 g ai/ha) | Galium plant response rating [13] | Kochia plant response rating (kochia (Kochia scoparia) [14]) | Ragweed plant response rating [16]
0: Plant response rating (0 to 100 scale), Kochia (kochia (Kochia scoparia) [3]; 31 g ai/ha) | Plant response rating (0 to 100 scale), Ragweed ([5]; 31 g ai/ha) | Plant response rating (0 to 100 scale), Ragweed ([5]; 125 g ai/ha) | Barnyardgrass plant response rating (0 to 100 scale, 0 is no effect, 100 is complete control) [7] | Ducksalad plant response rating (0 to 100 scale, 0 is no effect, 100 is complete control) [8] | Rice plant response rating (0 to 100 scale, 0 is no effect, 100 is complete control) (rice (Oryza sativa)) | Sedge, Umbrella plant response rating (0 to 100 scale, 0 is no effect, 100 is complete control) [9] | Blackgrass plant response rating ([11]; 31 g ai/ha) | Plant response rating (0 to 100 scale), Corn (corn (Zea mays)) | Corn plant response rating (corn (Zea mays)) | Plant response rating (0 to 100 scale), Wheat [18] | Wheat plant response rating [18]
10: Plant response rating (0 to 100 scale), Foxtail, Giant ([2]; 31 g ai/ha) | Plant response rating (0 to 100 scale), Pigweed ([4]; 31 g ai/ha) | Barnyardgrass plant response rating ([10]; 31 g ai/ha) | Plant response rating (0 to 100 scale), Foxtail, Giant [12] | Plant response rating (0 to 100 scale), Pigweed [15] | Plant response rating (0 to 100 scale), Ragweed [16]
40: Plant response rating (0 to 100 scale), Barnyardgrass ([1]; 31 g ai/ha) | Plant response rating (0 to 100 scale), Kochia (kochia (Kochia scoparia) [3]; 125 g ai/ha) | Foxtail, Giant plant response rating [12] | Plant response rating (0 to 100 scale), Kochia (kochia (Kochia scoparia) [14])
100: Plant response rating (0 to 100 scale), Ryegrass, It. ([6]; 125 g ai/ha) | Ryegrass, It. plant response rating [17]
30: Plant response rating (0 to 100 scale), Pigweed ([4]; 125 g ai/ha) | Blackgrass plant response rating ([11]; 125 g ai/ha)
